Data on two compounds can be found in patent publication US7511173B2, “Creatine salt with enhanced nutritional and therapeutic efficacy and compositions containing same” (Iovate T & P Inc., priority 2004, dated 2009).

Common to all, as to format: physicochemical
The nature of data set [1]: hygroscopicity.
Data set [2] in a line: pH of aqueous solution. Particulars: c = 1% in water.
A short description of data set [3]: stability in aqueous solution (titer, degradation into creatinine). Particulars: solution of about 15 mg/ml (1.5%), after 10 days at room temperature.

Take `CN(CC(=O)O)C(=N)N.NCC(=O)O` [creatine glycinate]: the hygroscopicity entry in data set [1] was “non-hygroscopic”. In data set [2], the pH is listed as 6; c = 1% in water.
On to citrate, for which, in data set [3], the “titer drop in aqueous solution” value is “about 50%”.
